Test results as given in US20070203066A1, “Compositions and methods for inhibiting cellular proliferation” (priority 2005, published 2007).
Where two headings read alike, the source gives them in different places. Positions of bridges follow the written chain, without caps; N, C: chain ends. Residues, ends and D or L forms follow the SMILES beside them. Chains are numbered I, II in the order given.

Key:
HUVECs = format: cell-based
Outline: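 HUVECs seeded at 5,000 cells/well in EBM with 2% FCS, adhered ≥12 hours, then stimulated with bFGF 10 ng/ml or VEGF 5 ng/ml plus varying peptide concentrations. After 48 hours at 37 ° C, 5% CO2, proliferation inhibition read by BrdU incorporation.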

[1] = system: Mouse Lewis lung carcinoma (LLC) cells; assay: Proliferation assay of tumor cells (BrdU incorporation), LLC; format: cell-based; conditions: 48 hours, read-out: Inhibitory Activity (IC50 uM) LLC
Protocol: (§1) The antiproliferative activity of selected peptides of the present invention was assessed on several tumor cell lines. Mouse Lewis lung carcinoma (LLC) cells were routinely cultured to near confluency in DMEM media with 10% FCS added. The cells were trypsinized and plated in a 96-well plate at 5,000 cells per well per 100 μl media supplemented with 2% FCS and antibiotics. MDA-MB-231 cells were routinely cultured to near confluency in advanced DMEM media supplemented with 10% FCS. The cells were allowed to adhere to the plate for at least 12 hours. Then, whole media and various concentrations of peptide, were added to the wells. The cells were cultured for 48 hours at 37 ° C. in a 5% CO2 atmosphere. Cell proliferation was determined using a bromo-deoxyuridine (BrdU) incorporation method as described by the manufacturer. Inhibition of cell proliferation, was assessed by BrdU incorporation.
(§2) The ability of representative peptides of this invention for their ability to inhibit various tumor cells line proliferation are listed below in Table 2.

MDA-MB-231 cells = assay: Proliferation assay of tumor cells (BrdU incorporation), MDA-MB-231; format: cell-based; conditions: MDA-MB-231 proliferation, 48 hours, read-out: Inhibitory Activity (IC50 uM) MDA-MB-231
Protocol: as §1, §2

[2] = system: bFGF-induced angiogenesis in Matrigel plugs; assay: Murine Matrigel plug angiogenesis assay; format: in vivo, C57B1/6 mice; conditions: peptide dimers, i.p. 0.2mg/d, 10-12 days of treatment, hemoglobin in plugs vs +bFGF/Buffer control
Protocol: In order to assess the effect of the peptides in this invention on angiogenesis, an additional assay was used to assess antiangiogenic activity.
Briefly, Matrigel (BD Biosciences, San Jose, Calif.) is mixed with 0.5 μg/ml of bFGF. 0.5 ml of this Matrigel/bFGF mixture is then injected subcutaneously on the ventral abdominal surface at the level of the xiphoid process of C57B1/6 mice. Matrigel plugs, injected in absence of bFGF addition, are used as negative controls. Treatment with various peptides is initiated 12-18 hours later. Animals are treated by i.p. administration of peptides, dosed at 0.2mg/d of peptide dimers, and 1.4 mg/d of Pegylated peptide dimers. After 10-12 days of treatment, animals are euthanized, and the Matrigel plugs are surgically removed, and cleaned of mouse tissue, fascia, and fat. […] After centrifugation, supernatant for each plug is assayed for the presence of Hemoglobin using a Serum Hemoglobin analysis kit (Sigma Diagnostics, St. Louis, Mo.). Angiogenesis is defined as the fold increase of hemoglobin in the buffer control treated mouse Matrigel plugs, above the amount of hemoglobin in negative (−bFGF) control Matrigel plugs. For experimental peptide treated animals, the percent inhibition is defined as the inhibition seen when comparing positive control plugs (+bFGF/ Buffer treatment) with peptide treated plugs (+bFGF/ Peptide treatment).

Row | IC50 [1] | IC50 (MDA-MB-231 cells) | Compound | IC50 (HUVECs; 48 h) | Matrigel Model % Inhibition [2] | IC50 (HUVECs; HUVEC proliferation, bFGF at 10 ng/ml or VEGF at 5 ng/ml, 48 hours, BrdU incorporation, read-out: IC50 on HUVECs)
1 | < 10 µM | < 10 µM | CC[C@H](C)[C@H](NC(=O)[C@H](CCCNC(=N)N)NC(=O)[C@@H](NC(=O)[C@H](Cc1c[nH]cn1)NC(=O)[C@H](CCC(N)=O)NC(=O)[C@H](CCCNC(=N)N)NC(=O)[C@H](Cc1c[nH]cn1)NC(=O)[C@H](CCCNC(=N)N)NC(=O)[C@H](CCCNC(=N)N)NC(=O)[C@H](CCCNC(=N)N)NC(C)=O)C(C)C)C(=O)N[C@H](C(=O)N[C@@H](Cc1ccccc1)C(=O)NCCCC[C@H](NC(=O)[C@H](Cc1ccccc1)NC(=O)[C@@H](NC(=O)[C@@H](NC(=O)[C@H](CCCNC(=N)N)NC(=O)[C@@H](NC(=O)[C@H](Cc1c[nH]cn1)NC(=O)[C@H](CCC(N)=O)NC(=O)[C@H](CCCNC(=N)N)NC(=O)[C@H](Cc1c[nH]cn1)NC(=O)[C@H](CCCNC(=N)N)NC(=O)[C@H](CCCNC(=N)N)NC(=O)[C@H](CCCNC(=N)N)NC(C)=O)C(C)C)[C@@H](C)CC)[C@@H](C)CC)C(N)=O)[C@@H](C)CC [Peptide 244] (I: Ac-RRRHRQHVRIIFK-NH2 / II: Ac-RRRHRQHVRIIF; amide I:13-II:C) | < 10 µM | – | –
2 | > 30 µM | > 30 µM | CC[C@H](C)[C@H](NC(=O)[C@H](C)NC(=O)[C@@H](NC(=O)[C@H](CCCNC(=N)N)NC(=O)[C@H](CCC(N)=O)NC(=O)[C@H](CCCNC(=N)N)NC(=O)[C@H](C)NC(=O)[C@H](Cc1c[nH]cn1)NC(=O)[C@H](CCCNC(=N)N)NC(=O)[C@H](C)NC(C)=O)C(C)C)C(=O)N[C@H](C(=O)N[C@@H](Cc1ccccc1)C(=O)NCCCC[C@H](NC(=O)[C@H](Cc1ccccc1)NC(=O)[C@@H](NC(=O)[C@@H](NC(=O)[C@H](C)NC(=O)[C@@H](NC(=O)[C@H](CCCNC(=N)N)NC(=O)[C@H](CCC(N)=O)NC(=O)[C@H](CCCNC(=N)N)NC(=O)[C@H](C)NC(=O)[C@H](Cc1c[nH]cn1)NC(=O)[C@H](CCCNC(=N)N)NC(=O)[C@H](C)NC(C)=O)C(C)C)[C@@H](C)CC)[C@@H](C)CC)C(N)=O)[C@@H](C)CC [Peptide 214] (I: Ac-ARHARQRVAIIFK-NH2 / II: Ac-ARHARQRVAIIF; amide I:13-II:C) | > 30 µM | – | –
3 | < 10 µM | < 10 µM | CC[C@H](C)[C@H](NC(=O)[C@H](CCCNC(=N)N)NC(=O)[C@@H](NC(=O)[C@H](CCCNC(=N)N)NC(=O)[C@H](CCC(N)=O)NC(=O)[C@H](CCCNC(=N)N)NC(=O)[C@H](CCCNC(=N)N)NC(=O)[C@H](CCCNC(=N)N)NC(=O)[C@H](CCCNC(=N)N)NC(=O)[C@@H](N)CCCNC(=N)N)C(C)C)C(=O)N[C@H](C(=O)N[C@@H](Cc1ccccc1)C(=O)NCCCC[C@H](NC(=O)[C@H](Cc1ccccc1)NC(=O)[C@@H](NC(=O)[C@@H](NC(=O)[C@H](CCCNC(=N)N)NC(=O)[C@@H](NC(=O)[C@H](CCCNC(=N)N)NC(=O)[C@H](CCC(N)=O)NC(=O)[C@H](CCCNC(=N)N)NC(=O)[C@H](CCCNC(=N)N)NC(=O)[C@H](CCCNC(=N)N)NC(=O)[C@H](CCCNC(=N)N)NC(=O)[C@@H](N)CCCNC(=N)N)C(C)C)[C@@H](C)CC)[C@@H](C)CC)C(N)=O)[C@@H](C)CC [Peptide 132] (I: H-RRRRRQRVRIIFK-NH2 / II: H-RRRRRQRVRIIF; amide I:13-II:C; N-terminus assumed) | < 10 µM | – | –
4 | < 10 µM | < 10 µM | CC[C@H](C)[C@H](NC(=O)[C@H](CCCNC(=N)N)NC(=O)[C@@H](NC(=O)[C@H](CCCNC(=N)N)NC(=O)[C@H](CCC(N)=O)NC(=O)[C@H](CCCNC(=N)N)NC(=O)[C@H](Cc1c[nH]cn1)NC(=O)[C@H](Cc1c[nH]cn1)NC(=O)[C@H](CCCNC(=N)N)NC(=O)[C@H](CCCNC(=N)N)NC(C)=O)C(C)C)C(=O)N[C@H](C(=O)N[C@@H](Cc1ccccc1)C(=O)NCCCC[C@H](NC(=O)[C@H](Cc1ccccc1)NC(=O)[C@@H](NC(=O)[C@@H](NC(=O)[C@H](CCCNC(=N)N)NC(=O)[C@@H](NC(=O)[C@H](CCCNC(=N)N)NC(=O)[C@H](CCC(N)=O)NC(=O)[C@H](CCCNC(=N)N)NC(=O)[C@H](Cc1c[nH]cn1)NC(=O)[C@H](Cc1c[nH]cn1)NC(=O)[C@H](CCCNC(=N)N)NC(=O)[C@H](CCCNC(=N)N)NC(C)=O)C(C)C)[C@@H](C)CC)[C@@H](C)CC)C(N)=O)[C@@H](C)CC [Peptide 240] (I: Ac-RRHHRQRVRIIFK-NH2 / II: Ac-RRHHRQRVRIIF; amide I:13-II:C) | < 10 µM | – | –
5 | – | – | 279 (Ac-RRRRRQRVRIYFK-NH2; not fully specified (residue 13); also: homodimer via Ida linker on Lys13 side chain) [compound 279] | – | 56.0% | < 10 µM
